{"source": "ChEMBL document CHEMBL5620422", "about": "“Design, synthesis, and biological evaluation of a series of new anthraquinone derivatives as anti-ZIKV agents” (Eur J Med Chem, 2023)", "key": {"Zika virus": {"system": "Zika virus", "test": "Antiviral activity against ZIKV ZG-01 infected in A549 cells preincubated for 1 hr followed by replacement with fresh media containing compound for 48 hrs by crystal violet staining based plaque assay", "type": "functional, organism-based", "conditions": "ZG-01, A549"}, "[1]": {"test": "Cytotoxicity against human A549 cells assessed as reduction in cell viability incubated for 48 hrs by MTT assay", "type": "toxicity, cell-based"}, "NS5 (Zika virus)": {"target": "NS5 (Zika virus) (UniProt A0A143MHK7)", "test": "Binding affinity to ZIKV RdRP by SPR assay"}, "[2]": {"system": "Porcine reproductive and respiratory syndrome virus", "test": "Antiviral activity against Porcine reproductive and respiratory syndrome virus infected in MARC145 cells assessed as reduction in viral replication by microscopic analysis", "type": "functional, organism-based"}}, "note": "Active and inactive are the calls of the source. The calls are words filed in the database; no cut-off is given here."}
{"smiles": "C[C@]1(O)CC2=C(C[C@@]1(C)O)C(=O)c1c(O)cc(NCCc3ccco3)c(O)c1C2=O", "values": [{"measurement": "EC50", "setting": "Zika virus", "value": 8.1, "unit": "µM"}, {"measurement": "CC50 at 48 h", "setting": "[1]", "value": "> 50", "unit": "µM"}]}
{"smiles": "C[C@]1(O)CC2=C(C[C@@]1(C)O)C(=O)c1c(O)cc(N3CCCC3)c(O)c1C2=O", "values": [{"measurement": "EC50", "setting": "Zika virus", "value": 25.6, "unit": "µM"}, {"measurement": "CC50 at 48 h", "setting": "[1]", "value": "> 50", "unit": "µM"}]}
{"smiles": "NC(=O)c1ncn([C@@H]2O[C@H](CO)[C@@H](O)[C@H]2O)n1", "values": [{"measurement": "Activity", "setting": "NS5 (Zika virus)", "value": "inactive"}]}
{"smiles": "C[C@]1(O)CC2=C(C[C@@]1(C)O)C(=O)c1c(O)cc(NC3CCC3)c(O)c1C2=O", "values": [{"measurement": "EC50", "setting": "Zika virus", "value": 38.4, "unit": "µM"}, {"measurement": "CC50 at 48 h", "setting": "[1]", "value": "> 50", "unit": "µM"}]}
{"smiles": "C[C@]1(O)CC2=C(C[C@@]1(C)O)C(=O)c1c(O)cc(NCc3ccccc3)c(O)c1C2=O", "values": [{"measurement": "EC50", "setting": "Zika virus", "value": 10.3, "unit": "µM"}, {"measurement": "CC50 at 48 h", "setting": "[1]", "value": "> 50", "unit": "µM"}]}
{"smiles": "C[C@]1(O)CC2=C(C[C@@]1(C)O)C(=O)c1c(O)cc(NCCO)c(O)c1C2=O", "values": [{"measurement": "EC50", "setting": "Zika virus", "value": 48.4, "unit": "µM"}, {"measurement": "CC50 at 48 h", "setting": "[1]", "value": "> 50", "unit": "µM"}]}
{"smiles": "C[C@]1(O)CC2=C(C[C@@]1(C)O)C(=O)c1c(O)cc(NCC3CCCO3)c(O)c1C2=O", "note": "(some centres undefined)", "values": [{"measurement": "EC50", "setting": "Zika virus", "value": 36.1, "unit": "µM"}, {"measurement": "CC50 at 48 h", "setting": "[1]", "value": "> 50", "unit": "µM"}]}
{"smiles": "C[C@]1(O)CC2=C(C[C@@]1(C)O)C(=O)c1c(O)cc(NCCC3=CCCCC3)c(O)c1C2=O", "values": [{"measurement": "EC50", "setting": "Zika virus", "value": 5.7, "unit": "µM"}, {"measurement": "CC50 at 48 h", "setting": "[1]", "value": "> 50", "unit": "µM"}]}
{"smiles": "C[C@]1(O)CC2=C(C[C@@]1(C)O)C(=O)c1c(O)cc(N3CCOCC3)c(O)c1C2=O", "values": [{"measurement": "EC50", "setting": "Zika virus", "value": 15.4, "unit": "µM"}, {"measurement": "CC50 at 48 h", "setting": "[1]", "value": "> 50", "unit": "µM"}]}
{"smiles": "CCC(C)Nc1cc(O)c2c(c1O)C(=O)C1=C(C[C@@](C)(O)[C@@](C)(O)C1)C2=O", "note": "(some centres undefined)", "values": [{"measurement": "EC50", "setting": "Zika virus", "value": "> 50", "unit": "µM"}, {"measurement": "CC50 at 48 h", "setting": "[1]", "value": "> 50", "unit": "µM"}]}
{"smiles": "C[C@]1(O)CC2=C(C[C@@]1(C)O)C(=O)c1c(O)cc(NCc3cccs3)c(O)c1C2=O", "values": [{"measurement": "EC50", "setting": "Zika virus", "value": 12.2, "unit": "µM"}, {"measurement": "CC50 at 48 h", "setting": "[1]", "value": "> 50", "unit": "µM"}]}
{"smiles": "CCNc1cc(O)c2c(c1O)C(=O)C1=C(C[C@@](C)(O)[C@@](C)(O)C1)C2=O", "values": [{"measurement": "EC50", "setting": "Zika virus", "value": 44.2, "unit": "µM"}, {"measurement": "CC50 at 48 h", "setting": "[1]", "value": "> 50", "unit": "µM"}]}
{"smiles": "C[C@]1(O)CC2=C(C[C@@]1(C)O)C(=O)c1c(O)cc(NC3CCCCC3)c(O)c1C2=O", "values": [{"measurement": "EC50", "setting": "Zika virus", "value": 15.5, "unit": "µM"}, {"measurement": "CC50 at 48 h", "setting": "[1]", "value": "> 50", "unit": "µM"}]}
{"smiles": "CCCNc1cc(O)c2c(c1O)C(=O)C1=C(C[C@@](C)(O)[C@@](C)(O)C1)C2=O", "values": [{"measurement": "EC50", "setting": "Zika virus", "value": 42.6, "unit": "µM"}, {"measurement": "CC50 at 48 h", "setting": "[1]", "value": "> 50", "unit": "µM"}]}
{"smiles": "C[C@]1(O)CC2=C(C[C@@]1(C)O)C(=O)c1c(O)cc(NC3CCCC3)c(O)c1C2=O", "values": [{"measurement": "EC50", "setting": "Zika virus", "value": 17.1, "unit": "µM"}, {"measurement": "CC50 at 48 h", "setting": "[1]", "value": "> 50", "unit": "µM"}]}
{"smiles": "C[C@]1(O)CC2=C(C[C@@]1(C)O)C(=O)c1c(O)cc(NCCN3CCCC3)c(O)c1C2=O", "values": [{"measurement": "EC50", "setting": "Zika virus", "value": 8.4, "unit": "µM"}, {"measurement": "CC50 at 48 h", "setting": "[1]", "value": "> 50", "unit": "µM"}]}
{"smiles": "C[C@]1(O)CC2=C(C[C@@]1(C)O)C(=O)c1c(O)cc(NCCN3CCOCC3)c(O)c1C2=O", "values": [{"measurement": "EC50", "setting": "Zika virus", "value": 24.5, "unit": "µM"}, {"measurement": "CC50 at 48 h", "setting": "[1]", "value": "> 50", "unit": "µM"}]}
{"smiles": "C[C@]1(O)CC2=C(C[C@@]1(C)O)C(=O)c1c(O)cc(NCCN3CCCCC3)c(O)c1C2=O", "values": [{"measurement": "EC50", "setting": "Zika virus", "value": 8.7, "unit": "µM"}, {"measurement": "CC50 at 48 h", "setting": "[1]", "value": "> 50", "unit": "µM"}]}
{"smiles": "C[C@]1(O)CC2=C(C[C@@]1(C)O)C(=O)c1c(O)cc(NCCc3cccs3)c(O)c1C2=O", "values": [{"measurement": "EC50", "setting": "Zika virus", "value": 7.8, "unit": "µM"}, {"measurement": "CC50 at 48 h", "setting": "[1]", "value": "> 50", "unit": "µM"}]}
{"smiles": "COc1cc(O)c2c(c1)[C@@H](O)[C@H]1C[C@](C)(O)[C@H](O)C[C@@H]1C2=O", "note": "[TETRAHYDROALTERSOLANOL C]", "values": [{"measurement": "EC50", "setting": "[2]", "value": 12.1, "unit": "µM"}]}
{"smiles": "C[C@]1(O)CC2=C(C[C@@]1(C)O)C(=O)c1c(O)cc(NCCc3ccccc3)c(O)c1C2=O", "values": [{"measurement": "EC50", "setting": "Zika virus", "value": 4.2, "unit": "µM"}, {"measurement": "CC50 at 48 h", "setting": "[1]", "value": "> 50", "unit": "µM"}]}
{"smiles": "C[C@]1(O)CC2=C(C[C@@]1(C)O)C(=O)c1c(O)cc(NCc3ccco3)c(O)c1C2=O", "values": [{"measurement": "EC50", "setting": "Zika virus", "value": 16.5, "unit": "µM"}, {"measurement": "CC50 at 48 h", "setting": "[1]", "value": "> 50", "unit": "µM"}]}
{"smiles": "C[C@]1(O)CC2=C(C[C@@]1(C)O)C(=O)c1c(O)cc(NC3CC3)c(O)c1C2=O", "values": [{"measurement": "EC50", "setting": "Zika virus", "value": 48.1, "unit": "µM"}, {"measurement": "CC50 at 48 h", "setting": "[1]", "value": "> 50", "unit": "µM"}]}
